These are literature values, as cited in US20170224756A1, “Antioxidants Against Oxidative Stress During a Stressor Event” (MERIAL INC., priority 2016, published 2017).

The test system of series [1] is oxidative stress. Particulars: heat-stressed quail.
Series [2] relates to gastric lesions. Particulars: indomethacin in rats.
In series [3] the test system is endothelial dysfunction. The conditions noted are these: locally administered; human forearms after typhoid vaccination.

On to epigallocatechin-3-gallate [EGCG], for which, in series [1], the “heat stress induced oxidative stress” value is “alleviates”.

For `[Se]` [Se/DMSO, selenium], in series [2], the “enzymatic antioxidants superoxide dismutase, catalase and glutathione peroxidase” value is given as “increased”; the gastric lesions entry was “significantly reduced”.

As to `O=C1O[C@H]([C@@H](O)CO)C(O)=C1O` [ascorbic acid], the “endothelial dysfunction, reduced vascular nitric oxide bioavailability and increased oxidative stress” value in series [3] is “partially reversible”.
